This note sets out measurements from article PMC12087695, “A Phenotyping Tool for Seven Cytochrome P450 Enzymes and Two Transporters: Application to Examine the Effects of Clopidogrel and Gemfibrozil” (Clinical Pharmacology and Therapeutics, 2025).

The target in data set [1] is T1, OATP1B3 (Homo sapiens, UniProt Q9NPD5).
T1 sequence (Q9NPD5 1-702): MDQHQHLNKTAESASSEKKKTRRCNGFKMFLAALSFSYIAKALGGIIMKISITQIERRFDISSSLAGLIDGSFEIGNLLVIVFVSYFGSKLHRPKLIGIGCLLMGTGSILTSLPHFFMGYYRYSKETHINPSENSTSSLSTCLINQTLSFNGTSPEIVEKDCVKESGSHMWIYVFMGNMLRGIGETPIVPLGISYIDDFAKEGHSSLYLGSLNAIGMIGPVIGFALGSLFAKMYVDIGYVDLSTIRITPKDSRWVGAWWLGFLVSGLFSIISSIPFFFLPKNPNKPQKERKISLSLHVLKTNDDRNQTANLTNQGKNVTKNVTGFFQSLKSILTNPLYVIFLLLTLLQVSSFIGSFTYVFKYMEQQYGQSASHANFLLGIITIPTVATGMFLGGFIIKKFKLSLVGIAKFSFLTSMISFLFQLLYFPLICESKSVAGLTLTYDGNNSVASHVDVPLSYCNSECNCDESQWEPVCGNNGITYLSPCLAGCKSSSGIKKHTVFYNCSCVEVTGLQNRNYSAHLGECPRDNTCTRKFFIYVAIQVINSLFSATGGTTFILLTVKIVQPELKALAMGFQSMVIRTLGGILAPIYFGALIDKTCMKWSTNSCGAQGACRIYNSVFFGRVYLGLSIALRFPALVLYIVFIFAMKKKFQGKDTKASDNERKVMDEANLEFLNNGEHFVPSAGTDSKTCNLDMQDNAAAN
Nature of the data set: OATP1B3 endogenous biomarker GCDCA-3S in plasma. Conditions: GCDCA-3S biomarker data.
Protocol: (§1) On study days, venous blood samples from all participants were drawn from forearm vein cannulas before the administration of the pretreatment drugs and 5 minutes before and 0.5, 1, 1.5, 2, 3, 4, 6, 8, 12, and 23 hours after the administration of the index drugs for determination of index drug and metabolite concentrations. Additional venous blood samples for biomarker analyses were drawn before the administration of the pretreatment drugs and 5 minutes before and 3 hours after the administration of the index drugs.
(§2) Plasma repaglinide, OATP1B1 biomarker GCDCA‐3G, OATP1B3 biomarker GCDCA‐3S, and CYP2D6 biomarker solanidine were analyzed using Sciex 5500 Qtrap and Sciex 6500 Qtrap LC–MS systems (AB Sciex, Toronto, ON, Canada) as previously described.[20], [21], [22] The limit of quantification for repaglinide was 0.01 ng/mL. The between‐day precisions (CV%) for quality controls (0.1 and 2.0 ng/mL) were below 10% and accuracies were within ±10%. For GCDCA‐3G and GCDCA‐3S, the limit of quantification was 0.5 ng/mL and the between‐day precisions and accuracies were below 5% and ± 10% at relevant concentrations (10 and 200 ng/mL).
(§3) As for biomarkers, AUC0‐3h values in phases I–III and AUC0‐4h values in phases III–V for GCDCA‐3G and GCDCA‐3S and AUC0‐4h values in phases III and V for M430, M444, and solanidine were calculated with trapezoidal rule in Excel (Microsoft, Redmond, WA).
(§4) Individuals with poor metabolism or transport function phenotype were excluded from respective statistical comparisons. Additionally, to keep comparisons balanced, subjects lacking pharmacokinetic variable data in any study phase were excluded from the respective analyses. Prior to statistical analyses with IBM SPSS Statistics Version 29.0 for Windows (IBM Corporation, Armonk, NY), all pharmacokinetic variable values were logarithmically transformed. Pharmacokinetic variables except T max were compared between different study phases by repeated‐measures analysis of variance with study phase as a within‐subjects factor. T max values were compared with Wilcoxon signed‐rank test. Differences with P < 0.05 after the Bonferroni correction were considered statistically significant. The data are presented as geometrical mean values or geometric mean ratios with geometric CV or 90% confidence intervals (CI) if not otherwise indicated.

Data set [2] concerns CYP2D6. The following applies: in vivo.
Protocol: (§5) This open‐label cross‐over clinical trial included five study phases that each participant underwent in a randomized order (Table 1 ). There was at least 2‐week washout period between different study days.
(§6) On study days, venous blood samples from all participants were drawn from forearm vein cannulas before the administration of the pretreatment drugs and 5 minutes before and 0.5, 1, 1.5, 2, 3, 4, 6, 8, 12, and 23 hours after the administration of the index drugs for determination of index drug and metabolite concentrations. […] Blood glucose levels were monitored with CareSens Dual point‐of‐care blood glucose meter (i‐SENS Inc., Seoul, South Korea) at each venous blood sampling time point up to 12 hours after the administration of index drugs.
(§7) The flow rate was 0.3 mL/min, and the gradient program for the mobile phase B was from 20% to 90% over 7 minutes, wash at 90% 7–9.5 minutes, followed by balancing at 20% before next injection. […] The quality control samples for each analyte at relevant concentrations were quantified with each batch of plasma samples.
(§8) As for biomarkers, AUC0‐3h values in phases I–III and AUC0‐4h values in phases III–V for GCDCA‐3G and GCDCA‐3S and AUC0‐4h values in phases III and V for M430, M444, and solanidine were calculated with trapezoidal rule in Excel (Microsoft, Redmond, WA). […]
Data set [3] relates to CYP2C9. The following applies: index drug data, healthy volunteers.
Protocol: as §5, §6, §7, §8
Data set [4] has as its target T2, CYP1A2 (Homo sapiens, UniProt P05177).
T2 sequence (P05177 1-516): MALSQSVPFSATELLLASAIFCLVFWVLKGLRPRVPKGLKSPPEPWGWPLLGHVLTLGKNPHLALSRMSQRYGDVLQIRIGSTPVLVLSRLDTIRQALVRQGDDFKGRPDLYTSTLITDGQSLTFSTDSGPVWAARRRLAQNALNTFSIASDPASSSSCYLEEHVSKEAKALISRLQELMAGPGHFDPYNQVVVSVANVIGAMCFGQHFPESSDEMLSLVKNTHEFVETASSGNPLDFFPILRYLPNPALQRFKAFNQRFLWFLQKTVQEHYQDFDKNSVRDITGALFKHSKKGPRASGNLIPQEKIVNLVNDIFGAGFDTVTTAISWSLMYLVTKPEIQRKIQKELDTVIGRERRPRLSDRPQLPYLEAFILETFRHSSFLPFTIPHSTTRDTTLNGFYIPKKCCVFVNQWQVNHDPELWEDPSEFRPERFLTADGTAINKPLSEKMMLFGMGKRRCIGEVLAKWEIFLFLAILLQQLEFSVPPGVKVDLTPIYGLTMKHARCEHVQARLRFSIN
The experiment in a line: CYP1A2 phenotyping, paraxanthine/caffeine metabolic ratios. In kind it is in vivo. Conditions: index drug data, healthy volunteers.
Protocol: as §5, §6, §7, §8

The target in data set [5] is T3, CYP2C8 (Homo sapiens, UniProt P10632).
T3 sequence (P10632 1-490): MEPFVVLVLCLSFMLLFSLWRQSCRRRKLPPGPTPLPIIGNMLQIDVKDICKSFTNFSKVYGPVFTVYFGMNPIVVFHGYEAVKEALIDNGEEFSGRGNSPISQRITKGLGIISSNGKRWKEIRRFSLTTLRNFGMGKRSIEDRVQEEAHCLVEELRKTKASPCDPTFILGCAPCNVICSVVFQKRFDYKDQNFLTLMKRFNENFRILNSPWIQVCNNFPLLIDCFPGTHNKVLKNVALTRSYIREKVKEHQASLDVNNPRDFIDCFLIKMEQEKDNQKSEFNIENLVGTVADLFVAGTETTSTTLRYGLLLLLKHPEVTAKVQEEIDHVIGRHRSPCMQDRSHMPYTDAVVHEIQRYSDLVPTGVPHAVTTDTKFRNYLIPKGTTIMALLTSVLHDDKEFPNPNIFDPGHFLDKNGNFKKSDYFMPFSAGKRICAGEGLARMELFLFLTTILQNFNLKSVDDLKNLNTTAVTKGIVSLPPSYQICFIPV
Conditions: in vivo.
Protocol: as §5, §6
The limit of quantification for repaglinide was 0.01 ng/mL. […] For GCDCA‐3G and GCDCA‐3S, the limit of quantification was 0.5 ng/mL and the between‐day precisions and accuracies were below 5% and ± 10% at relevant concentrations (10 and 200 ng/mL).
As for biomarkers, AUC0‐3h values in phases I–III and AUC0‐4h values in phases III–V for GCDCA‐3G and GCDCA‐3S and AUC0‐4h values in phases III and V for M430, M444, and solanidine were calculated with trapezoidal rule in Excel (Microsoft, Redmond, WA). 0‐hour metabolic ratio and AUC0‐4h ratios were calculated for M430/solanidine and M444/solanidine. […]

For data set [6], the system named is OATP1B1. Nature of the data set: OATP1B1 endogenous biomarker GCDCA-3G in plasma. The following applies: GCDCA-3G biomarker data.
Protocol: as §1, §2, §3, §4

Each structure is given as a SMILES string.

Turning to `Cc1ccc(C)c(OCCCC(C)(C)C(=O)O)c1` [Gemfibrozil, gemfibrozil], in data set [1], the “OATP1B3 inhibition in the trial” value was “does not affect”. For the same molecule, the “CYP2D6 inhibition in the trial” value in data set [2] was “lack of any clinically meaningful”. Also, the “CYP2C9 inhibition in the trial” value in data set [3] is on record as “lack of any clinically meaningful”. In data set [4], the “CYP1A2 inhibition strength in the trial” value is given as “weak”. In addition, the “CYP2C8 inhibition strength in the trial” value in data set [5] is listed as “strong”. Further, the “OATP1B1 inhibition in the trial” value in data set [6] was “slightly inhibits and weak”.
